Test: xn = mol fraction of the nth substance listed

O=C([O-])C(F)(F)F.O=S(=O)(O)n1cc[n+](S(=O)(=O)O)c1 + CC#N
101 kPa
Conditions	electrical conductivity [S/m]
278.15 K, x1 = 0.02551	1.83
283.15 K, x1 = 0.02551	1.78
288.15 K, x1 = 0.02551	1.62
293.15 K, x1 = 0.02551	1.59
298.15 K, x1 = 0.0052	0.305
298.15 K, x1 = 0.0104	0.52
298.15 K, x1 = 0.0155	0.949
298.15 K, x1 = 0.0205	1.15
298.15 K, x1 = 0.0255	1.54
298.15 K, x1 = 0.02551	1.54
298.15 K, x1 = 0.05	2.02
303.15 K, x1 = 0.02551	1.27
308.15 K, x1 = 0.02551	1.25
313.15 K, x1 = 0.02551	1.25
318.15 K, x1 = 0.02551	1.25
323.15 K, x1 = 0.02551	0.803
328.15 K, x1 = 0.02551	0.486
333.15 K, x1 = 0.02551	0.401

CCC[N+]1(C)CCCCC1.O=S(=O)([N-]S(=O)(=O)C(F)(F)F)C(F)(F)F + CCC[N+](C)(C)C.O=S(=O)([N-]S(=O)(=O)C(F)(F)F)C(F)(F)F
101.3 kPa, x2 = 0
Conditions	viscosity [mPa·s]
293.15 K	199
298.15 K	147
303.15 K	112
313.15 K	69
338.15 K	26.6
343.15 K	22.9

CCCC[P+](CCCC)(CCCC)CCCC.[Br-] + OCC(O)CO
101.3 kPa, x1 = 0.333
Conditions	viscosity [mPa·s]
293.15 K	468
298.15 K	329
303.15 K	235
308.15 K	172
313.15 K	116
318.15 K	97.1
323.15 K	68.4

CC[n+]1ccn(C)c1.O=S(=O)([O-])C(F)(F)F + CN(C)C=O + OCCO
viscosity [mPa·s], 100 kPa
Conditions	298.15 K	303.15 K	308.15 K	313.15 K	318.15 K	323.15 K
x2 = 0.0208, x3 = 0.1868	29.3	24.8	21.15	18.23	15.83	13.8
x2 = 0.0306, x3 = 0.198	27.9	23.6	20.16	17.39	15.11	13.18
x2 = 0.0398, x3 = 0.2206	25.8	21.9	18.69	16.15	14.06	12.27
x2 = 0.0679, x3 = 0.2281	23.5	20	17.13	14.83	12.93	11.29
x2 = 0.0847, x3 = 0.2475	21.3	18.2	15.61	13.54	11.83	10.34
x2 = 0.1005, x3 = 0.2658	19.4	16.5	14.24	12.39	10.85	9.48
x2 = 0.1248, x3 = 0.2717	17.7	15.2	13.09	11.41	10.01	8.76
x2 = 0.1637, x3 = 0.2744	15.6	13.4	11.59	10.14	8.92	7.81
x2 = 0.1852, x3 = 0.2798	14.3	12.3	10.67	9.35	8.25	7.23
x2 = 0.2057, x3 = 0.2849	13.1	11.3	9.84	8.64	7.64	6.7
x2 = 0.2567, x3 = 0.2666	11.6	10.1	8.83	7.78	6.9	6.06
x2 = 0.3179, x3 = 0.2469	9.96	8.69	7.63	6.76	6.02	5.29
x2 = 0.3633, x3 = 0.2306	8.7	7.63	6.74	6	5.34	4.85
x2 = 0.4128, x3 = 0.2106	7.83	6.89	6.11	5.45	4.89	4.31
x2 = 0.469, x3 = 0.1967	6.48	5.75	5.13	4.61	4.16	3.68
x2 = 0.5074, x3 = 0.1828	5.85	5.22	4.68	4.22	3.85	3.19
x2 = 0.5624, x3 = 0.1668	4.75	4.27	3.86	3.51	3.19	2.84
x2 = 0.6135, x3 = 0.152	3.92	3.55	3.24	2.96	2.71	2.43
x2 = 0.6611, x3 = 0.1382	3.32	3.02	2.76	2.53	2.32	2.15
x2 = 0.7126, x3 = 0.1243	2.61	2.41	2.23	2.07	1.92	1.74
x2 = 0.7536, x3 = 0.1124	2.33	2.14	1.98	1.83	1.7	1.58
x2 = 0.7982, x3 = 0.1005	1.83	1.7	1.59	1.49	1.4	1.29
x2 = 0.8449, x3 = 0.0889	1.53	1.42	1.33	1.24	1.17	1.09
x2 = 0.8948, x3 = 0.0712	1.22	1.14	1.07	1.01	0.95	0.89

[Br-].[PH3+]CCCCCCCCCCCCCC(c1ccccc1)(c1ccccc1)c1ccccc1 + O
300 K, 101 kPa
Conditions	electrical conductivity [S/m]
x2 = 0.503	0.00198
x2 = 0.603	0.00058
x2 = 0.802	0.00038

Oc1cccnc1 + CCCC[n+]1ccn(C)c1.[Cl-]
Conditions	viscosity [mPa·s]
293.15 K, 100 kPa, x1 = 0.333	179.1

C[n+]1ccn(CCCC#N)c1.O=S(=O)([N-]S(=O)(=O)C(F)(F)F)C(F)(F)F + O=C1CCCO1
electrical conductivity [S/m], 100 kPa
Conditions	x1 = 0.1003	x1 = 0.2005	x1 = 0.3003	x1 = 0.4005	x1 = 0.4997	x1 = 0.6003	x1 = 0.7001	x1 = 0.8002	x1 = 0.9003	x1 = 1
288.15 K	0.668	0.774	0.578	0.43	0.309	0.225	0.151	0.11	0.077	0.061
293.15 K	0.731	0.838	0.635	0.482	0.353	0.266	0.186	0.141	0.101	0.083
298.15 K	0.794	0.908	0.696	0.54	0.405	0.312	0.226	0.176	0.132	0.112
303.15 K	0.862	0.976	0.76	0.603	0.46	0.365	0.272	0.217	0.169	0.146
308.15 K	0.933	1.05	0.827	0.669	0.522	0.424	0.324	0.265	0.212	0.185
313.15 K	1.01	1.122	0.897	0.741	0.59	0.487	0.383	0.319	0.262	0.231
318.15 K	1.08	1.2	0.971	0.817	0.662	0.556	0.448	0.379	0.319	0.285
323.15 K	1.16	1.28	1.05	0.899	0.741	0.633	0.519	0.448	0.384	0.346
328.15 K	1.242	1.36	1.128	0.987	0.825	0.714	0.599	0.521	0.455	0.414
333.15 K	1.33	1.444	1.21	1.08	0.915	0.799	0.686	0.606	0.536	0.491
338.15 K	1.416	1.532	1.3	1.18	1.015	0.896	0.782	0.695	0.625	0.575
343.15 K	1.508	1.622	1.39	1.28	1.115	0.996	0.884	0.793	0.719	0.669

Reference: the CheMixHub ionic liquid set
